Article PMC9413491, “A Novel and Cross-Species Active Mammalian INDY (NaCT) Inhibitor Ameliorates Hepatic Steatosis in Mice with Diet-Induced Obesity” (Metabolites, 2022)
Read-outs that look alike come from different tables or passages of the source.

Columns and labels:
[1] = system: fatty acid synthesis in HepG2 cells; assay: Fatty acid synthesis assay ([14C] citrate incorporation) in HepG2 cells; format: cell-based, human
Description: We performed the fatty acid synthesis assay in HepG2 cells. We seeded cells into black clear-bottom 96-well plates (Corning 3340 cell plate) 75,000/well and incubated at 37 °C. After 16–24 h, we washed the plates once with 100 µL PBS (+CaCl2 +MgCl2) and added 50 µL assay medium ([…] containing 11 mM glucose, 10 mM HEPES, and 1 nM insulin) per well. Then, we applied test substances in assay medium (10 µL, 5% DMSO) and incubated for 20 min at 37 °C. Thereafter, we added 10 µL assay medium containing [14C] citrate (final concentration 50 µM) and PrestoBlue reagent (1× final concentration; Thermo Fisher Scientific, Waltham, MA, USA) and incubated for 180 min (37 °C, 5% CO2). We measured cell viability (ViewLux instrument, Perkin Elmer). We removed medium by vacuum aspiration and washed cells once with 100 µL PBS (+CaCl2 +MgCl2). We lysed cells with 50 µL lysis buffer (0.1 N NaOH, 0.1 % Triton X-100) and sealed plates with Tape Pads and vortexed. For the saponification reaction, we incubated plates for 16–24 h at 70 °C in a humidified environment. Then, we removed seals and added 200 µL 0.1 N HCl to neutralise the pH. We transferred 150 µL from each into corresponding wells of a 96-well Flash plate (Perkin Elmer) and sealed with TopSeal A (Perkin Elmer). We incubated plates for 4 h at 70 °C and for at least 3 h at room temperature in the dark. We measured [14C] radioactivity (microbeta2, Perkin Elmer). For control samples, we applied 50 mM unlabelled citrate or C75 (Sigma-Aldrich, St. Louis, MO, USA, C5490).

mouse Nact = target: T1, mouse Nact (Mus musculus, UniProt Q67BT3); assay: [14C] citrate uptake in HEK293 cells recombinantly expressing mouse Nact; format: cell-based; conditions: HEK293 mouse Nact
T1 construct: expressed in transfected cells; host or cells: HEK293 (DSMZ), stably transfected, G418 selection
T1 sequence (Q67BT3 1-572): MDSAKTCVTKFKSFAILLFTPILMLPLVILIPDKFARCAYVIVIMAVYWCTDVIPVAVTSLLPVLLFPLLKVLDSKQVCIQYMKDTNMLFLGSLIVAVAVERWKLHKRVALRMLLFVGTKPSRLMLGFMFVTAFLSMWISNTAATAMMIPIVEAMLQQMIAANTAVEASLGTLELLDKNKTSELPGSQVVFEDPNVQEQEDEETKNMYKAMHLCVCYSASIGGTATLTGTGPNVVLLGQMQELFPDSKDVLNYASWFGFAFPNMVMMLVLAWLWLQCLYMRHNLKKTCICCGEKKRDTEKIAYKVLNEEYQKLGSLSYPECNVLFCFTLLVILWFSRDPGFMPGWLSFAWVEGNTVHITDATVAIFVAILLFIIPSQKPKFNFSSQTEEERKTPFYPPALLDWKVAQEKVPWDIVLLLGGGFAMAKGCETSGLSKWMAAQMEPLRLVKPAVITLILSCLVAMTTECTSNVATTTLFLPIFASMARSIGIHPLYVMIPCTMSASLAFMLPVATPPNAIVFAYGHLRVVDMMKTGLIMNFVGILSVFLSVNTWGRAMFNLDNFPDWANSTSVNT
Description: (§1) We determined activity on human NaCT by measuring citrate uptake into HepG2 cells, which endogenously expressed NaCT [37] and for mouse Nact, using HEK293 cells recombinantly expressing mouse Nact (HEK-Nact). We cloned the mouse Slc13a5 cDNA encoding Nact as described previously.
(§2) For radiometric [14C] citrate uptake assays, we used Cytostar-T plates (Perkin Elmer#RPNQ0166, Waltham, MA, USA). For each assay, we seeded 20,000 HepG2 cells per well on collagen coated 384-well Cytostar-T plates or 5000 HEK293 cells per well on ploy-D-lysine coated 384-well Cytostar-T plates. On the following day, we changed culture medium to assay buffer: 120 mM NaCl, 5.4 mM KCl, 0.8 mM MgSO4, 5 mM glucose, 1.8 mM CaCl2, 25 mM Hepes, 25 mM MES, pH 6.5 (human) and pH 7.5 (mouse). We preincubated cells with compounds at 37 °C for 20 min, after which we added [14C] citrate (3 µM for HEK cells and 10 µM for HepG2 cells) and incubated cells for 50 min at 37 °C. After cooling down for 15 min at 4 °C, we measured the counts using a Microbeta2 reader system (Perkin Elmer).

human NaCT = target: T2, human NaCT (Homo sapiens, UniProt Q86YT5); assay: [14C] citrate uptake in HepG2 cells endogenously expressing human NaCT; format: cell-based; conditions: HepG2, human NaCT, citrate substrate
T2 construct: citrate uptake into HepG2 cells, which endogenously expressed NaCT; host or cells: HepG2
Description: as §1, §2

T2 sequence (Q86YT5 whole entry): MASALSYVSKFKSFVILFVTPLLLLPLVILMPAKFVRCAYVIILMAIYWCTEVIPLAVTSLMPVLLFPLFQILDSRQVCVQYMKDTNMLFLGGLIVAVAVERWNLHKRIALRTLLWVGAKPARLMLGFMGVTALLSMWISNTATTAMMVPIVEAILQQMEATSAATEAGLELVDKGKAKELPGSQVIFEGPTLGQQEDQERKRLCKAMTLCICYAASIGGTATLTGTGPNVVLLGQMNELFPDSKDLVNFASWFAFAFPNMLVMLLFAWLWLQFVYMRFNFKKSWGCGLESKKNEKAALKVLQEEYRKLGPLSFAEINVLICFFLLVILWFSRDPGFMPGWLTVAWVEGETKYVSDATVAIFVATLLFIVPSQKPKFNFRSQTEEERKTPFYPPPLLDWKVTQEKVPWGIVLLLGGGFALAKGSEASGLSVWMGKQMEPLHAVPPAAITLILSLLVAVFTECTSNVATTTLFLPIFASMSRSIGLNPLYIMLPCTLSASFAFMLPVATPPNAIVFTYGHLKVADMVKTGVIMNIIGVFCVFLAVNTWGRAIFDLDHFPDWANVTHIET

SMILES	IC50 ([1]; HepG2, read-out: IC50 HepG2 fatty acid synthesis) [nM]	Effect on citrate uptake for mouse Nact (mouse Nact)	IC50 (mouse Nact; read-out: IC50 HEK293 citrate uptake (mouse)) [nM]	IC50 (human NaCT) [nM]	IC50 ([1]; HepG2, [14C] citrate incorporation, read-out: IC50 fatty acid synthesis, HepG2) [nM]
O=C(NCc1ccc(F)cc1)C1CCN(S(=O)(=O)c2cc(Cl)cc(Cl)c2)CC1 [BI01383298, reference compound]	30	no effects	> 50000	78	
CC(C)(C)c1ccc(CC[C@@](O)(CC(=O)O)C(=O)O)cc1 [PF-06649298, reference compound]					39000
